Measured values from patent US20250101046A1 (TAE Life Sciences LLC, priority 2023, published 2025).

How the values were obtained:
[1] = Solubility in water / need of fructose to aid solubility; format: physicochemical
intracranial tumor = settings: BNCT, beam directed to surgically exposed intracranial tumor; cited from earlier work

Question: Which “requirement of fructose to aid solubility” value [1] does the source give for `COc1ccc(C[C@H](N)C(=O)O)cc1[10B](O)O` [TC221, (S)-2-(amino)-3-(4-methoxy-3-boronic acid)propionic acid] here?
Answer: does require fructose

Question: What about the solubility in water ([1]; water) of the same compound?
Answer: very soluble

Question: And the “threshold of solubility compared to BPA” value ([1]; with fructose, versus BPA)?
Answer: much higher compared to BPA

Question: For “undecahydro-closo-dodecaboratethiol [BSH]”, which 5-year survival rate (intracranial tumor) is on record?
Answer: 58%
